# Where a name gives a salt, the structure may show the parent alone.
# Biological target: T1, human GIRK1/4 channels (Homo sapiens, UniProt P48544+P48549)
# T1 construct: Full-length human GIRK1 cDNA was cloned from HuH cell- and HeLa cell-derived cDNA libraries; Full-length GIRK4 cDNA was amplified from a human heart cDNA library; expressed in transfected cells; host or cells: FLP-IN-CHO cells (Invitrogen)
# T1 sequence (P48549 1-501): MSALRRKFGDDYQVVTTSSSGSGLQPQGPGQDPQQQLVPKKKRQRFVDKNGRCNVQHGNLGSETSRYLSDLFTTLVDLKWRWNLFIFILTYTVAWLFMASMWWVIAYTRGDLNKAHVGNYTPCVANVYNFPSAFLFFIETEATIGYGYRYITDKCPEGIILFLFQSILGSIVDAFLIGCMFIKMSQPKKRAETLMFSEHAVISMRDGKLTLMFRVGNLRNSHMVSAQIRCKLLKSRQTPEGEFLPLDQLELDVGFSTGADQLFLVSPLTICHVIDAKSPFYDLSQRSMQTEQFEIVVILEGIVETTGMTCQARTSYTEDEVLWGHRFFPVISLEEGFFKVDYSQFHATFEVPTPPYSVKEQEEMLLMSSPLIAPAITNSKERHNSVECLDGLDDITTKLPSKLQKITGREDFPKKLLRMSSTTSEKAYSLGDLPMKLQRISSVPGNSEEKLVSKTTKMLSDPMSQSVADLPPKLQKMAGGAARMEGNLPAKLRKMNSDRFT
# T1 sequence (P48544 1-419): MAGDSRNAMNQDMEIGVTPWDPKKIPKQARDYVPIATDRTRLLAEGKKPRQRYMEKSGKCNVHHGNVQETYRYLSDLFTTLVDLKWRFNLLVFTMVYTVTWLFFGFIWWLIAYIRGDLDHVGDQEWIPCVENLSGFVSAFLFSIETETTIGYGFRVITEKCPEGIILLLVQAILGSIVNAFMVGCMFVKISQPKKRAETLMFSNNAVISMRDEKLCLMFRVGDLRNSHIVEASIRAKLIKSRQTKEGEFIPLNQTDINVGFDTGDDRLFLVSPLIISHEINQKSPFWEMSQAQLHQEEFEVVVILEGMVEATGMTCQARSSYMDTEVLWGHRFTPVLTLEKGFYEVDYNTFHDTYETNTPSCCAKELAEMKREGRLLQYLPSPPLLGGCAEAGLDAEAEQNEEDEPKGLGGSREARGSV
# Experiment: Measurement of human GIRK1/4 channel current by whole-cell patch clamp method (human GIRK1/4-expressing CHO cell line)
# Assay type: cell-based
# Details: whole-cell patch clamp, human GIRK1/4-expressing CHO cells; step end current at −120 mV; test compound 0.1, 1, 10 μM; read-out: GIRK¼ IC50
# Method: (2) Production of CHO Cell Line Expressing Human GIRK1/4
# CHO cell lines stably expressing human GIRK1/4 channels were prepared in the following manner.
# Full-length human GIRK1 cDNA was cloned from HuH cell- and HeLa cell-derived cDNA libraries. Full-length GIRK4 cDNA was amplified from a human heart cDNA library (produced by Clontech Laboratories, Inc.) by PCR using synthetic primers shown in Table 1, and cloned into the Eco-RI restriction enzyme site of pCR-Blunt (produced by Invitrogen Corporation) or into the HincII site of pUC118 (produced by Takara Bio, Inc.).
# The obtained human GIRK1 and GIRK4 cDNA sequences correspond to known sequences (NCBI database: GIRK1 (NM_002239) and GIRK4 (NM_000890) respectively). The obtained GIRK1 and GIRK4 cDNA sequences were cloned into the Eco-RI restriction enzyme site of pCR-Blunt (available from Invitrogen Corporation) or into the HincII site of pUC118 (available from Takara Bio, Inc.). A GIRK4 expression vector was constructed by insertion into the BamHI-XhoI site of pcDNA5/FRT. A GIRK1 expression vector was constructed by insertion into the KpnI-XhoI site of pcDNA3.1(+) or pCAG_neo. FLP-IN-CHO cells (produced by Invitrogen Corporation) were transfected with human GIRK1 and GIRK4 expression vectors by using Lipofectamine 2000 (produced by Invitrogen Corporation) according to the protocol enclosed with the reagent or using an electronic induction method (“Nucleofector Kit-T”, produced by Amaxa). First, the cells transfected with the GIRK4 expression vector were cultured in a 10% serum-containing F12 medium (produced by Sigma) supplemented with 600 μg/ml of hygromycin in an incubator with 5% carbon dioxide at 37° C. Then the cells expressing GIRK4 were transfected with the GIRK1 expression vector and were cultured in 10% serum-containing F12 medium supplemented with 350 μg/ml of G418 and 600 μg/ml of hygromycin in an incubator with 5% carbon dioxide at 37° C. to select GIRK1/4 expressing cell lines. Cell populations whose growth was observed after about 2 weeks were isolated using cloning rings, and the obtained single colonies were proliferated. RNA was extracted from single colonies, and single-stranded cDNA was synthesized by a cDNA synthesis kit (produced by Invitrogen Corporation), and the amount of expression was quantified at the mRNA level by real-time PCR (Applied Biosystems, Ltd.). Finally, the expressed current was analyzed by patch clamp method described below. The cell lines expressing a current of 500 pA or more per cell were selected as channel-expressing cell lines for activity measurement by patch clamping method.
# (4) Measurement of Ion Channel Current by Patch Clamp Method (Human GIRK1/4-Expressing CHO-K1 Cell Line)
# An experiment was carried out using a patch clamp setup at room temperature (20 to 26° C.). A perfusion chamber having a diameter of 20 mm (flow rate: about 5 ml/min) was mounted on the stage of a phase-contrast inverted microscope (produced by Nikon Corporation) placed on a vibration isolation table. A poly-L-lysine (produced by Sigma)-coated coverslip (diameter: 15 mm, produced by Matsunami Glass Ind., Ltd.) on which human GIRK1/4-expressing cells were cultured was placed in the perfusion chamber.
# Hyperpolarizing stimulation pulses were applied and ionic current was recorded using a patch clamp amplifier (EPC-7 or EPC-7 PLUS, manufactured by HEKA) and a personal computer (manufactured by IBM Corp.) in which software for data acquisition and analysis of ion channel current (PULSE 8.77, manufactured by HEKA) was installed. The current was measured in the whole-cell configuration of the patch-clamp technique. The tip (resistance: 2 to 4 MΩ) of a borosilicate glass pipette (produced by Sutter Instrument Co.) was gently placed on the cell membrane by using a three-dimensional mechanical micromanipulator (produced by Shoshin EM Corporation). […] Subsequently, stronger suction was applied to break the cell membrane. […]
row,Structure (SMILES),IC50 [nM]
1,"CCN1C(=O)C(C)(C)C(=O)N(C)c2cc(OCCCN(CCn3ccc4oc(C)cc4c3=O)Cc3ccncc3)ccc21 [Example 464, 1-ethyl-3,3,5-trimethyl-7-(3-{[2-(2-methyl-4-oxo-4H-furo[3,2-c]pyridin-5-yl)ethyl]pyridin-4-ylmethylamino}propoxy)-1,5-dihydrobenzo[b][1,4]diazepine-2,4-dione dihydrochloride]",3200
2,"CCN1C(=O)C(C)(C)C(=O)N(C)c2cc(OCCCN(CCn3ccc4occc4c3=O)Cc3cccnc3)ccc21 [Example 551, 1-ethyl-3,3,5-trimethyl-7-(3-{[2-(4-oxo-4H-furo[3,2-c]pyridin-5-yl)ethyl]pyridin-3-ylmethylamino}-propoxy)-1,5-dihydrobenzo[b][1,4]diazepine-2,4-dione]",5200
3,"CCN1C(=O)C(C)(C)C(=O)N(C)c2cc(OCCCN(CCn3ccc4oc(C)cc4c3=O)Cc3cnccc3C)ccc21 [Example 573, 1-ethyl-3,3,5-trimethyl-7-{3-[[2-(2-methyl-4-oxo-4H-furo[3,2-c]pyridin-5-yl)ethyl]-(4-methylpyridin-3-ylmethyl)amino]propoxy}-1,5-dihydrobenzo[b][1,4]diazepine-2,4-dione]",1500
4,"CCN1C(=O)C(C)(C)C(=O)N(C)c2cc(OCCCN(CCn3ccc4occc4c3=O)Cc3cccnc3C)ccc21 [Example 575, 1-ethyl-3,3,5-trimethyl-7-(3-{(2-methylpyridin-3-ylmethyl)-[2-(4-oxo-4H-furo[3,2-c]pyridin-5-yl)ethyl]-amino}propoxy)-1,5-dihydrobenzo[b][1,4]diazepine-2,4-dione]",500
5,"CCN1C(=O)C(C)(C)C(=O)N(C)c2cc(OCCCN(CCn3ccc4occc4c3=O)Cc3cnccc3C)ccc21 [Example 590, 1-ethyl-3,3,5-trimethyl-7-(3-{(4-methylpyridin-3-ylmethyl)-[2-(4-oxo-4H-furo[3,2-c]pyridin-5-yl)ethyl]-amino}propoxy)-1,5-dihydrobenzo[b][1,4]diazepine-2,4-dione]",2400
6,"CCN1C(=O)C(C)(C)C(=O)N(C)c2cc(OCCCN(CCn3ccc4sccc4c3=O)Cc3cccnc3C)ccc21 [Example 595, 1-ethyl-3,3,5-trimethyl-7-(3-{(2-methylpyridin-3-ylmethyl)-[2-(4-oxo-4H-thieno[3,2-c]pyridin-5-yl)ethyl]-amino}propoxy)-1,5-dihydrobenzo[b][1,4]diazepine-2,4-dione]",790
7,"CCN1C(=O)C(C)(C)C(=O)N(C)c2cc(OCCCN(CCc3cccnc3)S(=O)(=O)c3ccccc3)ccc21 [Example 628, N-[3-(1-ethyl-3,3,5-trimethyl-2,4-dioxo-2,3,4,5-tetrahydro-1H-benzo[b][1,4]diazepin-7-yloxy)propyl]-N-(2-pyridin-3-ylethyl)benzenesulfonamide hydrochloride]",2500
8,"CCN1C(=O)C(C)(C)C(=O)N(C)c2cc(OCCCN(CCc3cccnc3)C(=O)c3ccccc3)ccc21 [Example 633, N-[3-(1-ethyl-3,3,5-trimethyl-2,4-dioxo-2,3,4,5-tetrahydro-1H-benzo[b][1,4]diazepin-7-yloxy)propyl]-N-(2-pyridin-3-ylethyl)benzamide hydrochloride]",8400

# The remaining molecules from weak to strong by IC50, led by results:
row,IC50 [nM],Structure (SMILES)
1,490,"CCN1C(=O)C(C)(C)C(=O)N(C)c2cc(OCCCN(CCn3ccc4ccccc4c3=O)S(=O)(=O)c3ccccc3)ccc21 [Example 634, N-[3-(1-ethyl-3,3,5-trimethyl-2,4-dioxo-2,3,4,5-tetrahydro-1H-benzo[b][1,4]diazepin-7-yloxy)propyl]-N-[2-(1-oxo-1H-isoquinolin-2-yl)ethyl]benzenesulfonamide]"
2,370,"CCCc1ncccc1CN(CCCOc1ccc2c(c1)N(C)C(=O)C(C)(C)C(=O)N2CC)CCn1ccc2oc(C)cc2c1=O [Example 611, 1-ethyl-3,3,5-trimethyl-7-{3-[[2-(2-methyl-4-oxo-4H-furo[3,2-c]pyridin-5-yl)ethyl]-(2-propylpyridin-3-ylmethyl)amino]propoxy}-1,5-dihydrobenzo[b][1,4]diazepine-2,4-dione dihydrochloride]"
3,170,"CCN1C(=O)C(C)(C)C(=O)N(C)c2cc(OCCCN(CCn3ccc4occc4c3=O)Cc3ccc(C)nc3C)ccc21 [Example 629, 7-(3-{(2,6-dimethylpyridin-3-ylmethyl)-[2-(4-oxo-4H-furo[3,2-c]pyridin-5-yl)ethyl]amino}propoxy)-1-ethyl-3,3,5-trimethyl-1,5-dihydrobenzo[b][1,4]diazepine-2,4-dione dihydrochloride]"
4,50,"CCN1C(=O)C(C)(C)C(=O)N(C)c2cc(OCCCN(CCn3ccc4sccc4c3=O)Cc3cccnc3)ccc21 [Example 568, 1-ethyl-3,3,5-trimethyl-7-(3-{[2-(4-oxo-4H-thieno[3,2-c]pyridin-5-yl)ethyl]pyridin-3-ylmethylamino}-propoxy)-1,5-dihydrobenzo[b][1,4]diazepine-2,4-dione]"

# From patent publication US8664217B2, “Benzodiazepine compound and pharmaceutical composition” (Otsuka Pharmaceutical Co., Ltd., priority 2008, dated 2014)
